Measured values reported in ChEMBL document CHEMBL1126639, “Centrally acting serotonergic and dopaminergic agents. 2. Synthesis and structure-activity relationships of 2,3,3a,4,9,9a-hexahydro-1H-benz[f]indole derivatives” (J Med Chem, 1993).

Legend:
D(2) dopamine receptor [1] = biological target: D(2) dopamine receptor (Homo sapiens, UniProt P14416); experiment: Binding affinity against [3H]U-86,170-labeled dopamine receptor D2 in cloned CHO cells; type: cell-based
D(2) dopamine receptor [2] = biological target: T1, D(2) dopamine receptor (Rattus norvegicus, UniProt P61169); experiment: Binding affinity for [3H]raclopride-labeled dopamine receptor D2 in rat striatum; type: tissue-based
T1 sequence (P61169 whole entry): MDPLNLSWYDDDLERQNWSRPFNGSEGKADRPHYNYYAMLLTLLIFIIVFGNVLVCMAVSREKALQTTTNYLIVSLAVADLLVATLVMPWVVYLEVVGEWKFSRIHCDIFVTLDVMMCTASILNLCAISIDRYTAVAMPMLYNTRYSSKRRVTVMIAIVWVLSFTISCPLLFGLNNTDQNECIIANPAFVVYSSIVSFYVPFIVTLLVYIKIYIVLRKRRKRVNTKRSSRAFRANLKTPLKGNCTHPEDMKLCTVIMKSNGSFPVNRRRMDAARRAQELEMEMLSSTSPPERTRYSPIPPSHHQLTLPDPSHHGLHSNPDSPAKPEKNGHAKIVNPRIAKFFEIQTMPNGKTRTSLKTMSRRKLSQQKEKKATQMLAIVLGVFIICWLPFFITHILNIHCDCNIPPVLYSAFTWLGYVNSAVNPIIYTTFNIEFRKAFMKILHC

Mus musculus [3] = experiment: Effective dose on hypothermia in mouse when administered subcutaneously; type: functional
Mus musculus [4] = experiment: Effective dose on hypothermia in mouse when administered through peroral route; type: functional
Mus musculus [5] = experiment: Maximum decrease in temperature when compound is administered subcutaneously; type: functional
Mus musculus [6] = experiment: Maximum decrease in temperature when compound is administered through peroral route; type: functional
Rattus norvegicus [7] = experiment: Effect on the synthesis rates of dopamine (DOPA accumulation) in the rat ventral limbic brain region at 3.7 uM/kg.; type: functional, Limbic system
Rattus norvegicus [8] = organism: Rattus norvegicus; experiment: Effect on the synthesis rates of serotonin (5-HTP accumulation) in the rat ventral limbic brain region […]; type: functional, Limbic system
Mus musculus [9] = experiment: Antagonism of apomorphine for 0-10 minutes in reserpinized mice when a dose of 0.4 micro mol/kg is administered intraperitoneally; type: functional
Mus musculus [10] = experiment: Antagonism of apomorphine for 0-10 minutes in reserpinized mice when a dose of 3.7 micro mol/kg is administered intraperitoneally; type: functional
Mus musculus [11] = experiment: Antagonism of apomorphine for 0-10 minutes in reserpinized mice when a dose of 37 micro mol/kg is administered intraperitoneally; type: functional
Mus musculus [12] = experiment: Antagonism of apomorphine for 10-20 minutes in reserpinized mice when a dose of 3.7 micro mol/kg is administered intraperitoneally; type: functional
Mus musculus [13] = experiment: Ability to stimulate dopaminergic systems by effect on locomotor activity in reserpinized mice when a dose of 3.7 micro mol/kg is administered intraperitoneally; type: functional
Mus musculus [14] = experiment: Ability to stimulate dopaminergic systems by effect on locomotor activity in reserpinized mice when a dose of 37 micro mol/kg is administered intraperitoneally; type: functional
Mus musculus [15] = experiment: Ability to stimulate dopaminergic systems by effect on locomotor activity in reserpinized mice when a dose of 0.4 micro mol/kg is administered intraperitoneally; type: functional
Mus musculus [16] = experiment: Antagonism of apomorphine in reserpinized mice when a dose of 37 micro mol/kg is administered intraperitoneally; type: functional
Mus musculus [17] = experiment: Antagonism of apomorphine for 10-20 minutes in reserpinized mice when a dose of 37 micro mol/kg is administered intraperitoneally; type: functional
Mus musculus [18] = experiment: Antagonism of apomorphine in reserpinized mice when a dose of 0.4 micro mol/kg is administered intraperitoneally; type: functional
Mus musculus [19] = experiment: Antagonism of apomorphine in reserpinized mice when a dose of 3.7 micro mol/kg is administered intraperitoneally; type: functional
Rattus norvegicus [20] = experiment: Inhibition of firing rates of dopaminergic neurons in the substantia nigra pars compacta by intravenous injection in rats.; type: functional
D(2) dopamine receptor [21] = biological target: T1, D(2) dopamine receptor; experiment: Inhibitory concentration against [3H]raclopride-labeled dopamine receptor D2 in rat striatum; type: tissue-based
Mus musculus [22] = experiment: Time of effect in the face-to-face behavioral assay in the mouse when a dose of 0.4 umol/kg is administered perorally; type: functional
Mus musculus [23] = experiment: (§1) Time of effect in the face-to-face behavioral assay in the mouse when a dose of […] is administered perorally; type: functional
Mus musculus [24] = experiment: as §1; type: functional; remark: listed apart in the source
Mus musculus [25] = experiment: Time of effect in the isolation-induced aggression behavioral assay in the mouse when a dose of 1.1 micro mol/kg is administered perorally; type: functional
Mus musculus [26] = experiment: Time of effect in the isolation-induced aggression behavioral assay in the mouse when a dose of 11 micro mol/kg is administered perorally; type: functional
Mus musculus [27] = experiment: Time of effect in the isolation-induced aggression behavioral assay in the mouse when a dose of 11 umol/kg is administered intraperitoneally; type: functional
Mus musculus [28] = experiment: Time of effect in the isolation-induced aggression behavioral assay in the mouse when a dose of 3.6 micro mol/kg is administered perorally; type: functional
Mus musculus [29] = experiment: Time of effect in the isolation-induced aggression behavioral assay in the mouse when a dose of 36 micro mol/kg is administered intraperitoneally; type: functional
Mus musculus [30] = experiment: Time of effect in the isolation-induced aggression behavioral assay in the mouse when a dose of 36 micro mol/kg is administered perorally; type: functional
Mus musculus [31] = experiment: Time of effect in the isolation-induced aggression behavioral assay in the mouse when a dose of 0.0 micro mol/kg is administered perorally; type: functional
Mus musculus [32] = experiment: Time of effect in the isolation-induced aggression behavioral assay in the mouse when a dose of 0.0 umol/kg is administered intraperitoneally; type: functional
Rattus norvegicus [33] = experiment: Effect on the synthesis rates of dopamine (DOPA accumulation) in the rat ventral limbic brain region at 10.7 uM/kg.; type: functional, Limbic system
Rattus norvegicus [34] = experiment: Effect on the synthesis rates of serotonin (5-HTP accumulation) in the rat ventral limbic brain region 10.7 umol/kg.; type: functional, Limbic system
Rattus norvegicus [35] = experiment: Inhibition of firing rates of dopaminergic neurons in the substantia nigra pars compacta by intravenous injection in rats; type: functional
Rattus norvegicus [36] = experiment: Inhibition of firing rates of serotonergic neurons in the dorsal raphe nucleus by intravenous injection in rats; type: functional
Mus musculus [37] = experiment: Effective dose on hypothermia in mouse when administered subcutaneously (95% confidence levels); type: functional; conditions: sc
Rattus norvegicus [38] = experiment: Effect on the synthesis rates of dopamine (DOPA accumulation) in the rat ventral limbic brain region at 3.4 uM/kg.; type: functional, Limbic system
Rattus norvegicus [39] = experiment: Effect on the synthesis rates of serotonin (5-HTP accumulation) in the rat ventral limbic brain region 3.4 umol/kg.; type: functional, Limbic system
Felis catus [40] = organism: Felis catus; experiment: Percent of arterial blood pressure at sympathetic nerve activity (SND) dose value was determined; type: functional
Felis catus [41] = experiment: Maximum decrease of arterial blood pressure at sympathetic nerve activity (SND) in anesthetized cat has been observed following 1 mg/kg dose; type: functional; design: scale not given: the % may be the effect or the level left
Felis catus [42] = experiment: Maximum decrease of sympathetic nerve activity (SND) in anesthetized cat; type: functional; design: scale not given: the % may be the effect or the level left
Felis catus [43] = experiment: Effective dose at which the sympathetic nerve activity (SND) has been reduced to 50% of the pretreatment value in anesthetized cat; type: functional
[44] = Mus musculus, po, read-out: ED50

Sequence of D(2) dopamine receptor (Homo sapiens, UniProt P14416) (P14416 whole entry): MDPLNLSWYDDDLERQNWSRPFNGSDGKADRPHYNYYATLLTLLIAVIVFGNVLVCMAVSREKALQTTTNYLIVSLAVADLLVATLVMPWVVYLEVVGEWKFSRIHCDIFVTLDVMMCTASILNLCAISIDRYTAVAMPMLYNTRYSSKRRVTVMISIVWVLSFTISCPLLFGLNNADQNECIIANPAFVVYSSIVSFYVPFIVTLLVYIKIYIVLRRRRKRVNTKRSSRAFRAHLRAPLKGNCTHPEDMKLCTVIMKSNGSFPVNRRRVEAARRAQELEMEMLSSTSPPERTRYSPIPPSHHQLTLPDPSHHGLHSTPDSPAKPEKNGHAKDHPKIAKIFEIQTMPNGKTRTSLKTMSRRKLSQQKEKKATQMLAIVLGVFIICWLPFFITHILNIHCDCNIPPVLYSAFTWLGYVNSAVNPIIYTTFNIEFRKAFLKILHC

Compound: CCCN1CC[C@@H]2Cc3c(O)cccc3C[C@H]21
- Ki (D(2) dopamine receptor [1]): 0.0005 µM
- Ki (D(2) dopamine receptor [2]): 0.002 µM
- ED50 (Mus musculus [3]; Mus musculus, sc, read-out: ED50): 0.03 µmol/kg
- ED50 (Mus musculus [4]; [44]): 0.04 µmol/kg
- Max temperature decrease (Mus musculus [5]): 7.5
- Max temperature decrease (Mus musculus [6]): 10.9
- Control (Rattus norvegicus [7]): -45%
- Control (Rattus norvegicus [8]): -9.5%
- Locomotor activity (Mus musculus [9]): 48
- Locomotor activity (Mus musculus [10]): 52
- Locomotor activity (Mus musculus [11]): 93
- Locomotor activity (Mus musculus [12]): 62
- Locomotor activity (Mus musculus [13]): 1014
- Locomotor activity (Mus musculus [14]): 1625
- Locomotor activity (Mus musculus [15]): 739
- Locomotor activity (Mus musculus [16]): 43
- Locomotor activity (Mus musculus [17]): 53
- Locomotor activity (Mus musculus [18]): 56
- Locomotor activity (Mus musculus [19]): 47
- ED50 (Rattus norvegicus [20]): 0.0014 µmol/kg

Compound: C=CCN1CC[C@@H]2Cc3c(cccc3OC)C[C@H]21
- IC50 (D(2) dopamine receptor [21]): > 1 µM
- ED50 (Mus musculus [3]): 0.6 µM/kg
- ED50 (Mus musculus [4]): 1.1 µM/kg
- Time (Mus musculus [22]): 1.7 s
- Time (Mus musculus [23]): 1 s
- Time (Mus musculus [24]): 1.5 s
- Time (Mus musculus [25]): 109 s
- Time (Mus musculus [26]): 257 s
- Time (Mus musculus [27]): 570 s
- Max temperature decrease (Mus musculus [5]): 4.5
- Max temperature decrease (Mus musculus [6]): 5.6
- Time (Mus musculus [28]): 198 s
- Time (Mus musculus [29]): 600 s
- Time (Mus musculus [30]): 397 s
- Time (Mus musculus [31]): 5 s
- Time (Mus musculus [32]): 5 s
- Control (Rattus norvegicus [33]): -37%
- Control (Rattus norvegicus [34]): -41%
- ED50 (Rattus norvegicus [35]): 0.05 µmol/kg
- ED50 (Rattus norvegicus [36]): 0.08 µM/kg

Compound: CCCN1[C@@H](C)C[C@@H]2Cc3cccc(OC)c3C[C@@H]21 (racemic)
- Ki (D(2) dopamine receptor [1]): 0.464 µM
- IC50 (D(2) dopamine receptor [21]): > 1 µM
- ED50 (Mus musculus [37]): 4.4 µmol/kg
- ED50 (Mus musculus [4]; [44]): > 101 µmol/kg
- Max temperature decrease (Mus musculus [5]): 7.8
- Max temperature decrease (Mus musculus [6]): 3.1
- Control (Rattus norvegicus [38]): 32%
- Control (Rattus norvegicus [39]): -44%
- BP (Felis catus [40]): 85%
- Control (Felis catus [41]): 63%
- Control (Felis catus [42]): 25%
- ED50 (Felis catus [43]): 1.18 µmol/kg
